How the values were obtained:
Test in all cases: In vitro cytotoxicity of Ara-N3 probe (Annexin V/IP, MTS)
[1] = tested on: Macrophage (primary cells); assay type: cell-based, human; conditions: tested 1, 10, 50 and 100 mM, 24 h and 48 h
Description: (§1) The cell lines (as detailed below in the table) were provided by Inserm/Aquiderm transfer cell. Cell culture of cell lines and cell cytoxicity tests were also carried out by Aquiderm transfer cell, in the laboratory of INSERM U1035.
Human mononucleated cells were isolated from peripheral blood from 2 different healthy donors by convention established with the Etablissement Frangais du Sang d'Aquitaine. The technique used was Ficoll gradient isolation. Briefly, the blood diluted in a phosphate buffered saline solution (PBS) was deposited on a sucrose solution (Ficoll, Eurobio) and centrifuged in order to separate the different blood elements. Between Ficoll and plasma was established a cell ring composed of monocytes and lymphocytes. This was recovered and washed in PBS for counting on the Malassez cell.
Human CD14+monocytes were isolated from […] by magnetic beads coupled to an anti-CD14 antibody (Miltenyi Biotech). The mononuclear cells were incubated for 15 minutes, in PBS buffer, in the presence of a determined concentration of beads depending on the number of cells. […]
Briefly, after incubation of the cells with the Ara-N3 probe at different concentrations and at different times (24 h and 48 h), the cells were recovered, trypsinized (for adherent cells) and washed in PBS. […] They were then directly analyzed by cytometry after adding 100 μL of labeling buffer. […]

[2] = tested on: MDA MB453 (tumoral cell lines); assay type: cell-based
Description: as §1
(§2) All the cells were seeded in culture plates, either in 96 wells at the density of 1*10^4 cells/well for the MTS proliferation test, either in 24 wells at the density of 5*10^4 cells/well for the Annexin V test/IP test. Then the cells were incubated at 37° C. and 5% CO2 for 24 hours. After 24 hours, the culture medium was changed in all the wells and the cells adhered to the bottom of the wells were rinsed twice in PBS (Eurobio) or centrifuged and washed twice in PBS for the cells in suspension, before being exposed to the Ara-N3 probe at different concentrations: 1, 10, 50 and 100 mM. The cells were incubated at 37° C. and 5% CO2 for 48 hours.
(§3) This test requires the use of an Annexin V-APC kit (Biolegend) for the detection of apoptosis/necrosis. This test uses the ability of Annexin V to bind to membrane phosphatidylserines (PS) and the intercalating properties of propidium iodide (PI) on DNA.
(§4) Briefly, after incubation of the cells with the Ara-N3 probe at different concentrations and at different times (24 h and 48 h), the cells were recovered, trypsinized (for adherent cells) and washed in PBS. After counting in trypan blue on the Malassez cell, the cells were incubated in a labeling buffer (100 μL) in the presence of Annexin V-APC (5 μL) and of IP (10 μL) for 15 minutes at room temperature and in the dark. They were then directly analyzed by cytometry after adding 100 μL of labeling buffer.
(§5) The non-toxic concentrations of Ara-N3 with respect to the tested cells are gathered in the following Table 5.

[3] = tested on: MDA MB231 (tumoral cell lines); assay type: cell-based
Description: as §1, §2, §3, §4, §5

[4] = tested on: HME1 (immortalized cell lines); assay type: cell-based
Description: as §1, §2, §3, §4, §5

[5] = tested on: MDA MB175 (tumoral cell lines); assay type: cell-based
Description: as §1, §2, §3, §4, §5

[N-]=[N+]=NC[C@H]1OC(O)[C@@H](O)[C@@H]1O (stereo partly drawn) [Ara-N3, 5-azido-5-deoxy-D-arabinofuranose]
Non-toxic concentration of Ara-N3 [1]: >10 mM | Non-toxic concentration of Ara-N3 [2]: >1 mM | Non-toxic concentration of Ara-N3 [3]: >1 mM | Non-toxic concentration of Ara-N3 [4]: >1 mM | Non-toxic concentration of Ara-N3 [5]: >1 mM

— patent US12517131B2, “Methods for labeling eukaryotic cells from a multicellular organism as well as for treating and/or diagnosing a cancer using modified monosaccharide compounds” (DIAMIDEX, priority 2019, dated 2026)
